Like-named read-outs stand apart in the source and are kept apart here. Marks after values point to notes of the source that are not given here.
Experiments:
MBP-antiABA-scFv = experiment: SPR affinity in solution (competitive titration) of test compounds for the scFv; assay type: binding, mouse; settings: for Cross-reactivity MBP-aABA-scFv: from KA relative to (+)-ABA = 100%; for Affinity in solution, MBP-aABA-scFv, KA / Kd: scFv 25 nM, 1 hour at 25°C; for Kd: read-out: Affinity in solution, MBP-aABA-scFv, KD
Protocol: All heterogeneous phase (surface) techniques can be subject to artefacts introduced by ligand immobilisation or e.g. biotinylation of the free ligand. […] The equilibrium mixtures (1 hour at 25°C) were injected over an SA chip surface saturated with b-PEG-ABA at high ligand density, and the initial binding rate of free scFv was measured. The concentration of free scFv from each equilibrium mixture was determined from a calibration curve (S6A Fig) and plotted against the concentration of free (+)-ABA. Data points were fitted to the solution affinity model in BIAevaluation (S5B Fig). […] Thus, the kinetics of the fusion protein have been described with confidence. Next these were compared with the characteristics of both cleaved, free scFv and with the parental monoclonal immunoglobulin.
The selectivity of the scFv for (+)-ABA was tested by determining the affinity in solution for structurally or physiologically related compounds. […] The concentration of free scFv in the equilibrium mixtures was determined and plotted against concentration of competitor. Affinity was determined by fitting the data points to a solution affinity model (Fig 4). The KA value was determined for each compound, and then percentage cross-reactivity was calculated by expressing each KA value relative to the KA for (+)-ABA. Values were compared to literature data for the parental monoclonal antibody (Table 3).
Fig 4 Cross-reactivity of the anti-ABA-scFv. […] The concentration of free scFv in the equilibrium mixtures was plotted against the concentration of test compound. The structures of each competitor are shown framed in the same colours as the data in the dose graph. There is no box for the racemic mix. The colour code for each compound is shown on the left of the plot.
Figure S6. Affinity in solution. (a) A calibration curve was generated by injecting known concentrations of free MBP-antiABA-scFv (0.1 nM – 50 nM) over the surface of a SA sensor chip saturated with b -PEG-ABA, plotting the initial binding rate against concentration and fitting the data points to a 4 -parameter equation. (b) MBP- […]
1 nM, 5 nM, 10 nM, 50 nM, 100 nM, 200 nM, 500 nM), and the mixtures incubated to equilibrium (1 hour at 25°C). The concentration of free MBP -antiABA-scFv in the equilibrium mixtures was then determined from the calibration curve. The concentration of free MBP -antiABA-scFv in the equilibrium mixtures was plotted against (+)-ABA concentration and the data points were fitted to a solution affinity […]
(1 picture or pasted object on this page, not shown here)

mAb 15-I-C5 = settings: cited from earlier work
[1] = no reference given; cited from earlier work
[2] = radiolabel displacement curves, 50% displacement, ref Phytodetek manual m100.2, Agdia Inc.
[3] = radiolabel displacement curves, 50% displacement, ref Walker-Simmons et al., 1991

Kd (MBP-antiABA-scFv) [mM] | Structure (SMILES) | Cross-reactivity MBP-aABA-scFv (MBP-antiABA-scFv) [%] | Affinity in solution, MBP-aABA-scFv, KA (MBP-antiABA-scFv) [M⁻¹] | Cross-reactivity mAb 15-I-C5 (mAb 15-I-C5; [2]) | other results
17.1 | CC(C)=CCC/C(C)=C/CC/C(C)=C/CO [All-trans-Farnesol] | 0.00002 | 58.4 | 0 ^c % | Cross-reactivity MBP-aABA-scFv (MBP-antiABA-scFv; listed as farnesol): lower than 10^−4%
7.23 | O=C(O)Cc1c[nH]c2ccccc12 [Indole-3-acetic acid] | 0.00005 | 138 | – | Cross-reactivity MBP-aABA-scFv (MBP-antiABA-scFv; listed as auxin): lower than 10^−4%
0.0113 | CC(=C/C(=O)O)/C=C/[C@]1(O)[C@@]2(C)CO[C@]1(C)CC(=O)C2 [Phaseic acid] | 0.029 | 88200 | <0.1 ^c % | Cross-reactivity MBP-aABA-scFv (MBP-antiABA-scFv; listed as phaseic acid): 0.03%; affinity, fold lower than that for (+)-ABA (MBP-antiABA-scFv; scFv): over 100 fold
0.00217 | CC(C=CC1(O)C2(C)COC1(C)CC(O)C2)=CC(=O)O (centres unmarked) [Dihydrophaseic acid] | 0.156 | 462000 | <0.1 ^c % | Cross-reactivity MBP-aABA-scFv (MBP-antiABA-scFv; listed as dihydrophaseic acid): 0.16%; affinity, fold lower than that for (+)-ABA (MBP-antiABA-scFv; scFv): over 100 fold
32.8 | C=C1C[C@]23C[C@@]1(O)CC[C@H]2[C@@]12C=C[C@H](O)[C@@](C)(C(=O)O1)[C@H]2[C@@H]3C(=O)O [Gibberellic acid] | 0.00001 | 30.4 | – | Cross-reactivity MBP-aABA-scFv (MBP-antiABA-scFv; listed as gibberellic acid): lower than 10^−4%
0.00109 | CC(C=CC1C(C)=CC(=O)CC1(C)C)=CC(=O)O (mixture of isomers) [2-cis-(R,S)-(±)-1’-deoxy-ABA] | 0.309 | 917000 | – | Cross-reactivity MBP-aABA-scFv (MBP-antiABA-scFv; listed as 1ʹ-deoxy-ABA): 0.3%; affinity, fold lower than that for (+)-ABA (MBP-antiABA-scFv; scFv): over 100 fold
1.62 | CC(C=CC12OC1(C)CC(O)CC2(C)C)=CC=O (centres unmarked) [Xanthoxin] | 0.0002 | 617 | 0 ^c % | Cross-reactivity MBP-aABA-scFv (MBP-antiABA-scFv; listed as xanthoxin): lower than 10^−4%

The next lines start with the compound.

Structure (SMILES) | Kd (MBP-antiABA-scFv) [mM] | Cross-reactivity MBP-aABA-scFv (MBP-antiABA-scFv) [%] | Affinity in solution, MBP-aABA-scFv, KA (MBP-antiABA-scFv) [M⁻¹] | Cross-reactivity mAb 15-I-C5 (mAb 15-I-C5; [2]) | other results
NCCCCC(N)C(=O)O (racemic) [D,L-Lysine] | 6.12 | 0.00006 | 163 | – | Cross-reactivity MBP-aABA-scFv (MBP-antiABA-scFv; listed as lysine): lower than 10^−4%
CC1=CC(=O)CC(C)(C)[C@@]1(O)/C=C/C(C)=C/C(=O)O [2-trans-(S)-(+)-ABA] | – | – | – | 0% | Cross-reactivity mAb 15-I-C5 (mAb 15-I-C5; [3]): 0.98%
CC(C=CC1(O)C(C)=CC(=O)CC1(C)C)=CC(=O)O (racemic) [2-cis-(R,S)-(±)-ABA] | 7.61e-06 | 44.25 | 1.31e+08 | – | Cross-reactivity MBP-aABA-scFv (MBP-antiABA-scFv; listed as (±)-ABA): 44.3%; Cross-reactivity mAb 15-I-C5 (mAb 15-I-C5; [3]): 49.4 ^d %
CC1=CC(=O)CC(C)(C)C1(O)/C=C/C(C)=C\C(=O)O (centres unmarked) [ABA, abscisic acid] | – | – | – | – | pKa [1]: 4.75
O=C(O)c1ccccc1 [Benzoic acid] | 10.9 | 0.00003 | 91.7 | – | Cross-reactivity MBP-aABA-scFv (MBP-antiABA-scFv; listed as benzoic acid): lower than 10^−4%
CC1=CC(=O)CC(C)(C)[C@@]1(O)/C=C/C(C)=C\C(=O)O [2-cis-(S)-(+)-ABA] | 3.37e-06 | 100 | 2.96e+08 | – | affinity relative to the inactive (-)-ABA (MBP-antiABA-scFv; scFv): three orders of magnitude higher; Cross-reactivity mAb 15-I-C5 (mAb 15-I-C5; reference value, determined by other investigators, no source marked): 100%
